Results: patent US9789181B2, “PAN-DR binding polypeptides and uses thereof” (Epimmune Inc., priority 2009, dated 2017)
Where no end group is shown, it is not given here.

Legend:
HLA DRB1 *0101 = HLA DRB1 *0101 (Homo sapiens, UniProt P01903+P01911, A100R/D57E/F55L/F60I/F76Y/I96L/L162R/M171V/P40L/Q125E/R42F/V115G/Y59C); experiment: IC50nM to purified HLA | DRB1 *0101
Protocol: (§1) Table printed on a drawing sheet, FIG. 1 (contd.)
Head of the field: IC50nM to purified HLA | DRB1 *0101
(§2) First copying reader's note: Continued from the preceding sheet of FIG. 1; decimal commas are used, the analog names give the substituted residues and positions in PADRE, and some values are printed in italics or bold and some SEQ ID NOs bold and underlined without a legend on this sheet.
Where the first naming reader finds the target: head: IC50nM to purified HLA | DRB1 *0101

HLA DRB1 *0301 = HLA DRB1 *0301 (Homo sapiens, UniProt P01903+P01911, A100K/A102G/A103R/A169T/F55Y/I96L/K41T/L162R/M171V/P40S/Q125H/Q178H/Q39Y/R42S/S66N/T106N/T262R/W38E/Y61H); experiment: IC50nM to purified HLA | DRB1 *0301
Protocol: as §1
Head of the field: IC50nM to purified HLA | DRB1 *0301
as §2
Where the first naming reader finds the target: head: IC50nM to purified HLA | DRB1 *0301

HLA DRB1 *0401 = HLA DRB1 *0401 (Homo sapiens, UniProt P01903+P01911, A100K/A169T/F76Y/I96L/K127E/L162R/M171V/N62H/P40V/Q125Y/R42H/S133A/S149N/S66Y/V115G/V209L/W38E); experiment: IC50nM to purified HLA | DRB1 *0401
Protocol: as §1
Head of the field: IC50nM to purified HLA | DRB1 *0401
as §2
Where the first naming reader finds the target: head: IC50nM to purified HLA | DRB1 *0401

HLA DRB1 *0404 = HLA DRB1 *0404 (Homo sapiens, UniProt P01903+P01911, A100R/A169T/F76Y/I96L/K127E/L162R/M171V/N62H/P40V/Q125Y/R42H/S133A/S149N/S66Y/V209L/W38E); experiment: IC50nM to purified HLA | DRB1 *0404
Protocol: as §1
Head of the field: IC50nM to purified HLA | DRB1 *0404
as §2
Where the first naming reader finds the target: head: IC50nM to purified HLA | DRB1 *0404

HLA DRB1 *0802 = HLA DRB1 *0802 (Homo sapiens, UniProt P01903+P01911, A100R/A103L/A169T/F76Y/H45Y/I96F/K41T/L162R/M171V/P40S/Q125H/Q178H/Q39Y/Q99D/R218S/R42G/S66Y/V115G/W38E); experiment: IC50nM to purified HLA | DRB1 *0802
Protocol: as §1
Head of the field: IC50nM to purified HLA | DRB1 *0802
as §2
Where the first naming reader finds the target: head: IC50nM to purified HLA | DRB1 *0802

HLA DRB1 *0901 = HLA DRB1 *0901 (Homo sapiens, UniProt P01903+P01911, A100R/A103E/D57H/D86V/F55Y/F60I/F76Y/I96F/K127E/L162R/M171V/P40D/Q125H/Q99R/R33Q/R42F/S133A/S66N/T210M/V115G/W38K/Y107V/Y59G/Y89S); experiment: IC50nM to purified HLA | DRB1 *0901
Protocol: as §1
Head of the field: IC50nM to purified HLA | DRB1 *0901
as §2
Where the first naming reader finds the target: head: IC50nM to purified HLA | DRB1 *0901

HLA DRB1 *1101 = HLA DRB1 *1101 (Homo sapiens, UniProt P01903+P01911, A100R/A169T/A87E/I96F/K41T/L162R/M171V/P40S/Q125H/Q178H/Q39Y/Q99D/R42S/S66Y/T262R/V115G/W38E); experiment: IC50nM to purified HLA | DRB1 *1101
Protocol: as §1
Head of the field: IC50nM to purified HLA | DRB1 *1101
as §2
Where the first naming reader finds the target: head: IC50nM to purified HLA | DRB1 *1101

HLA DRB1 *1501 = HLA DRB1 *1501 (Homo sapiens, UniProt P01903+P01911); experiment: IC50nM to purified HLA | DRB1 *1501
Protocol: as §1
Head of the field: IC50nM to purified HLA | DRB1 *1501
as §2
Where the first naming reader finds the target: head: IC50nM to purified HLA | DRB1 *1501

HLA DRB1 *0405 = HLA DRB1 *0405 (Homo sapiens, UniProt P01903+P01911, A100R/A169T/D86S/F76Y/I96L/K127E/L162R/M171V/N62H/P40V/Q125Y/R42H/S133A/S149N/S66Y/V115G/V209L/W38E); experiment: IC50nM to purified HLA | DRB1 *0405
Protocol: as §1
Head of the field: IC50nM to purified HLA | DRB1 *0405
as §2
Where the first naming reader finds the target: head: IC50nM to purified HLA | DRB1 *0405

HLA DRB1 *0701 = HLA DRB1 *0701 (Homo sapiens, UniProt P01903+P01911, A100R/A102G/A103Q/D57E/D86V/E43K/F76Y/K127E/L162R/M171V/P40G/Q125H/Q99D/R33Q/R42Y/R54Q/S133A/S66F/T210M/V115G/Y107V/Y59L/Y89S); experiment: IC50nM to purified HLA | DRB1 *0701
Protocol: as §1
Head of the field: IC50nM to purified HLA | DRB1 *0701
as §2
Where the first naming reader finds the target: head: IC50nM to purified HLA | DRB1 *0701

HLA DRB4 *0101 = HLA DRB4 *0101 (Homo sapiens, UniProt P01903+P13762, G164S); experiment: IC50nM to purified HLA | DRB4 *0101
Protocol: as §1
Head of the field: IC50nM to purified HLA | DRB4 *0101
as §2
Where the first naming reader finds the target: head: IC50nM to purified HLA | DRB4 *0101

HLA DRB1 *1302 = HLA DRB1 *1302 (Homo sapiens, UniProt P01903+P01911, A100E/A169T/K41T/L162R/M171V/P40S/Q125H/Q178H/Q39Y/Q99D/R42S/S66N/T262R/V115G/W38E/Y61H); experiment: IC50nM to purified HLA | DRB1 *1302
Protocol: as §1
Head of the field: IC50nM to purified HLA | DRB1 *1302
as §2
Where the first naming reader finds the target: head: IC50nM to purified HLA | DRB1 *1302

HLA DRB5 *0101 = HLA DRB5 *0101 (Homo sapiens, UniProt P01903+Q30154); experiment: IC50nM to purified HLA | DRB5 *0101
Protocol: as §1
Head of the field: IC50nM to purified HLA | DRB5 *0101
as §2
Where the first naming reader finds the target: head: IC50nM to purified HLA | DRB5 *0101

HLA DRB1 *1101, sequence (P01903 26-254 limits assumed, other chains not shown): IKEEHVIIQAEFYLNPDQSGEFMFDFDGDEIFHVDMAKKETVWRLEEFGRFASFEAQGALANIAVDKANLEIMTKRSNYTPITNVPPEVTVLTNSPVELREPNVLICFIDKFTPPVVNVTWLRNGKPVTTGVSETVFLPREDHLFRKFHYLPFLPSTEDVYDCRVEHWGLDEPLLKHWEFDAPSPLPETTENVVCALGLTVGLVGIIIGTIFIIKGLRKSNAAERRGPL
HLA DRB4 *0101, sequence (P01903 26-254 limits assumed): as the sequence (P01903 26-254 limits assumed, other chains not shown) above
HLA DRB4 *0101, sequence (P13762 whole entry G164S): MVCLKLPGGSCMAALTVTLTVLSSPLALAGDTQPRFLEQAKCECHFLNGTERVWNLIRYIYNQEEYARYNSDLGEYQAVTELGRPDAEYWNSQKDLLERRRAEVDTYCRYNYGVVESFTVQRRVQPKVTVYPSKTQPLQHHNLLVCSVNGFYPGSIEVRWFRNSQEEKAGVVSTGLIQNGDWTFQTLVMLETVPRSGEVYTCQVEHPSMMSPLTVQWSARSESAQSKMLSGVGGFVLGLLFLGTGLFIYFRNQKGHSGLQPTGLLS
HLA DRB1 *1302, sequence (P01903 26-254 limits assumed, other chains not shown): as the sequence (P01903 26-254 limits assumed, other chains not shown) above
HLA DRB1 *0301, sequence (P01903 26-254 limits assumed, other chains not shown): as above

Sequence | IC50 (HLA DRB1 *0101) [nM] | IC50 (HLA DRB1 *0301) [nM] | IC50 (HLA DRB1 *0401) [nM] | IC50 (HLA DRB1 *0404) [nM] | IC50 (HLA DRB1 *0802) [nM] | IC50 (HLA DRB1 *0901) [nM] | IC50 (HLA DRB1 *1101) [nM] | IC50 (HLA DRB1 *1501) [nM] | IC50 (HLA DRB1 *0405) [nM] | IC50 (HLA DRB1 *0701) [nM] | IC50 (HLA DRB4 *0101) [nM] | IC50 (HLA DRB1 *1302) [nM] | IC50 (HLA DRB5 *0101) [nM]
AAADFVAAYTLHAAA [SEQ ID NO: 42] | 4.8 | 286 | 4.5 | 5.3 | 14 | 32 | 40 | 19 | 21 | 182 | – | – | –
AAAEFVAAFTLHAAA [SEQ ID NO: 48] | 6.1 | – | 2.1 | 2.6 | 19 | 18 | 48 | 50 | 14 | 140 | 132 | 2020 | –
AAAEFVAAYTLHAAA [SEQ ID NO: 47] | 3.9 | 144 | 2.3 | 3.2 | 13 | 28 | 27 | 6.9 | 17 | 161 | 448 | 1450 | 52
AAAHFVAAWTLKADA [SEQ ID NO: 31] | 5.1 | – | 8.5 | 7.1 | 24 | – | – | – | 16 | – | 2100 | 875 | 23
AAAHFVAAYTLKADA [SEQ ID NO: 32] | 5.4 | – | 11 | 9.6 | – | 31 | – | 11 | – | 48 | – | – | 17
AAAHFVAANTLKAEA [SEQ ID NO: 39] | 7.1 | – | 12 | 14 | 64 | – | – | – | 36 | 83 | 941 | 234 | –
AAAHFVAAWTLKAEA [SEQ ID NO: 36] | 5.1 | – | 6.4 | – | 22 | 44 | 53 | 20 | – | – | 677 | 1100 | 18
AAAKFVAAWTLKADA [SEQ ID NO: 30] | 5 | 1160 | 7.3 | 9.7 | – | 27 | – | 19 | 17 | – | – | 807 | 19
AAAEFVAAWTLHAAA [SEQ ID NO: 46] | – | 134 | 3.1 | 4.1 | 24 | 44 | 38 | – | 27 | 97 | – | 1150 | 48
AAAHFVAAFTLKADA [SEQ ID NO: 33] | 6.7 | – | 15 | 9.5 | – | 30 | 76 | 37 | 19 | 83 | 948 | 594 | –
AAANFVAAYTLHAAA [SEQ ID NO: 52] | 2.7 | 171 | – | – | – | – | 16 | 4.2 | 19 | 67 | – | 1420 | –
AAAHFVAAYTLKAEA [SEQ ID NO: 37] | 6.9 | – | 7.5 | 5.3 | – | 35 | 44 | 10 | 11 | – | 721 | 1010 | 16
AAADFVAAWTLKAAA [SEQ ID NO: 40] | 7 | 330 | 5.1 | 4 | 17 | – | 19 | 64 | 30 | 195 | 1540 | 4000 | –
AAAHFVAANTLKADA [SEQ ID NO: 34] | – | 3120 | 21 | 13 | 67 | 60 | 91 | 172 | 36 | 88 | – | – | 18
AAAKFVAAWTLKAEA [SEQ ID NO: 35] | – | – | 6.5 | – | 21 | 41 | 36 | 23 | 8.4 | – | 710 | – | 17
AAADFVAANTLHAAA [SEQ ID NO: 44] | 7.8 | 731 | 6.6 | 8.6 | 44 | 82 | – | 580 | – | 196 | – | 187 | 80
AAAEFVAAWTLKAAA [SEQ ID NO: 45] | 2.5 | 169 | 3.8 | 2.8 | 16 | 41 | 45 | 56 | 9.8 | – | 332 | 840 | 6.7
AAADFVAAWTLHAAA [SEQ ID NO: 41] | 4.9 | 249 | 5.3 | 7.1 | 24 | 40 | 28 | 89 | 27 | 152 | – | – | –
AAADFVAAFTLHAAA [SEQ ID NO: 43] | 7.3 | 746 | 4.7 | 3.7 | – | – | 44 | 97 | 11 | 223 | 1050 | – | –
